ChEMBL document CHEMBL3046749, “Synthesis and antimicrobial activity of novel bis-azaphenothiazines” (2013)
Values after ≈ are worked out from the molar mass of the structure shown. Active and inactive are the calls of the source. The rule behind the calls is not given here.

What was measured:
Assay type in all cases: functional
[1] = tested on: Candida albicans; test: Antifungal activity against Candida albicans MTCC 227 at 100 ug/ml after 28 to 30 hr by cup-plate method; conditions: for zone of inhibition at 100 µg/mL: read-out: IZ
[2] = tested on: Klebsiella pneumoniae; test: Antibacterial activity against Klebsiella pneumoniae MTCC 432 at 100 ug/ml after 16 to 18 hr by cup-plate method; conditions: read-out: IZ
[3] = tested on: Staphylococcus aureus; test: Antibacterial activity against Staphylococcus aureus MTCC 096 at 100 ug/ml after 16 to 18 hr by cup-plate method; conditions: read-out: IZ
[4] = tested on: Aspergillus flavus; test: Antifungal activity against Aspergillus flavus MTCC 277 at 100 ug/ml after 28 to 30 hr by cup-plate method; conditions: for zone of inhibition at 100 µg/mL: read-out: IZ
[5] = tested on: Salmonella typhi; test: Antibacterial activity against Salmonella enterica subsp. enterica serovar Typhi MTCC 733 at 100 ug/ml after 16 to 18 hr by cup-plate method; conditions: read-out: IZ
[6] = tested on: Aspergillus flavus; test: Antifungal activity against Aspergillus flavus MTCC 277 after 28 to 30 hr by cup-plate method
[7] = tested on: Pseudomonas aeruginosa; test: Antibacterial activity against Pseudomonas aeruginosa MTCC 424 at 100 ug/ml after 16 to 18 hr by cup-plate method; conditions: read-out: IZ
[8] = tested on: Pseudomonas aeruginosa; test: Antibacterial activity against Pseudomonas aeruginosa MTCC 424 after 16 hr by cup-plate method; conditions: MTCC 424, 16 h
[9] = tested on: Klebsiella pneumoniae; test: Antibacterial activity against Klebsiella pneumoniae MTCC 432 after 16 hr by cup-plate method; conditions: MTCC 432, 16 h
[10] = tested on: Staphylococcus epidermidis; test: Antibacterial activity against Staphylococcus epidermidis MTCC 435 at 100 ug/ml after 16 to 18 hr by cup-plate method; conditions: read-out: IZ
[11] = tested on: Bacillus subtilis; test: Antibacterial activity against Bacillus subtilis MTCC 441 after 16 hr by cup-plate method; conditions: MTCC 441, 16 h
[12] = tested on: Staphylococcus epidermidis; test: Antibacterial activity against Staphylococcus epidermidis MTCC 435 after 16 hr by cup-plate method; conditions: MTCC 435, 16 h
[13] = tested on: Aspergillus fumigatus; test: Antifungal activity against Aspergillus fumigatus MTCC 343 at 100 ug/ml after 28 to 30 hr by cup-plate method; conditions: for zone of inhibition at 100 µg/mL: read-out: IZ
[14] = tested on: Staphylococcus aureus; test: Antibacterial activity against Staphylococcus aureus MTCC 096 after 16 hr by cup-plate method; conditions: MTCC 096, 16 h
[15] = tested on: Escherichia coli; test: Antibacterial activity against Escherichia coli MTCC 443 after 16 hr by cup-plate method; conditions: MTCC 443, 16 h
[16] = tested on: Candida albicans; test: Antifungal activity against Candida albicans MTCC 227 after 28 to 30 hr by cup-plate method
[17] = tested on: Bacillus subtilis; test: Antibacterial activity against Bacillus subtilis MTCC 441 at 100 ug/ml after 16 to 18 hr by cup-plate method; conditions: read-out: IZ
[18] = tested on: Escherichia coli; test: Antibacterial activity against Escherichia coli MTCC 443 at 100 ug/ml after 16 to 18 hr by cup-plate method; conditions: read-out: IZ
[19] = tested on: Aspergillus fumigatus; test: Antifungal activity against Aspergillus fumigatus MTCC 343 after 28 to 30 hr by cup-plate method
[20] = tested on: Aspergillus niger; test: Antifungal activity against Aspergillus niger MTCC 282 after 28 to 30 hr by cup-plate method
[21] = tested on: Aspergillus niger; test: Antifungal activity against Aspergillus niger MTCC 282 at 100 ug/ml after 28 to 30 hr by cup-plate method; conditions: for zone of inhibition at 100 µg/mL: read-out: IZ

| Compound | zone of inhibition at 100 µg/mL [1] [mm] | zone of inhibition at 100 µg/mL [2] [mm] | zone of inhibition at 100 µg/mL [3] [mm] | zone of inhibition at 100 µg/mL [4] [mm] | zone of inhibition at 100 µg/mL [5] [mm] | MIC [6] [µg/mL] | zone of inhibition at 100 µg/mL [7] [mm] | MIC [8] [µg/mL] | MIC [9] [µg/mL] | zone of inhibition at 100 µg/mL [10] [mm] | MIC [11] [µg/mL] | MIC [12] [µg/mL] | zone of inhibition at 100 µg/mL [13] [mm] | MIC [14] [µg/mL] | MIC [15] [µg/mL] | MIC [16] [µg/mL] | zone of inhibition at 100 µg/mL [17] [mm] | zone of inhibition at 100 µg/mL [18] [mm] | MIC [19] [µg/mL] | MIC [20] [µg/mL] | further results |
| --- | --- | --- | --- | --- | --- | --- | --- | --- | --- | --- | --- | --- | --- | --- | --- | --- | --- | --- | --- | --- | --- |
| Clc1ccc2c(c1)Sc1cccnc1N2CCCCN1c2ccc(Cl)cc2Sc2cccnc21 | 11 | 11 | 12 | 12 | 12 | 12.5 (≈ 23.9 µM) | 11 | 50 (≈ 95.5 µM) | > 50 | 12 | 50 (≈ 95.5 µM) | 6.25 (≈ 11.9 µM) | 11 | 25 (≈ 47.8 µM) | 12.5 (≈ 23.9 µM) | 25 (≈ 47.8 µM) | 11 | 12 | 50 (≈ 95.5 µM) | > 50 | zone of inhibition at 100 µg/mL [21]: 10 mm |
| c1ccc2c(c1)Sc1cccnc1N2CCCCN1c2ccccc2Sc2cccnc21 |  | 12 | 11 |  | 12 | > 50 | 13 | 6.25 (≈ 13.7 µM) | 25 (≈ 55 µM) | 12 | > 50 | 12.5 (≈ 27.5 µM) |  | 50 (≈ 110 µM) | > 50 | > 50 | 10 | 11 | > 50 | > 50 | inhibition zone (IZ) [1]: inactive; inhibition zone (IZ) [4]: inactive; inhibition zone (IZ) [13]: inactive; inhibition zone (IZ) [21]: inactive |
| c1ccc2c(c1)Sc1cccnc1N2CCCCCCN1c2ccccc2Sc2cccnc21 | 12 | 12 | 13 | 12 | 12 | 25 (≈ 51.8 µM) | 11 | 50 (≈ 104 µM) | 25 (≈ 51.8 µM) | 13 | 25 (≈ 51.8 µM) | 6.25 (≈ 12.9 µM) | 10 | 6.25 (≈ 12.9 µM) | 12.5 (≈ 25.9 µM) | 12.5 (≈ 25.9 µM) | 12 | 12 | > 50 | 25 (≈ 51.8 µM) | zone of inhibition at 100 µg/mL [21]: 11 mm |
| Clc1ccc(COC(Cn2ccnc2)c2ccc(Cl)cc2Cl)c(Cl)c1 (centres undefined) [MICONAZOLE] | 19 |  |  | 17 |  | 12.5 (≈ 30 µM) |  |  |  |  |  |  | 15 |  |  | 6.25 (≈ 15 µM) |  |  | 6.25 (≈ 15 µM) | 6.25 (≈ 15 µM) | zone of inhibition at 100 µg/mL [21]: 18 mm |
| Fc1ccc2c(c1)Sc1cccnc1N2CCCCN1c2ccc(F)cc2Sc2cccnc21 | 10 | 11 | 11 | 12 | 12 | 25 (≈ 51 µM) | 10 | > 50 | 50 (≈ 102 µM) | 12 | 12.5 (≈ 25.5 µM) | 12.5 (≈ 25.5 µM) | 10 | 25 (≈ 51 µM) | 25 (≈ 51 µM) | > 50 | 12 | 11 | > 50 | 50 (≈ 102 µM) | zone of inhibition at 100 µg/mL [21]: 11 mm |
| Clc1ccc2c(c1)Sc1cccnc1N2CCCCCCN1c2ccc(Cl)cc2Sc2cccnc21 | 12 | 11 | 12 | 10 | 12 | > 50 | 12 | 25 (≈ 45.3 µM) | 50 (≈ 90.7 µM) | 10 | 25 (≈ 45.3 µM) | > 50 | 12 | 25 (≈ 45.3 µM) | 50 (≈ 90.7 µM) | 12.5 (≈ 22.7 µM) | 12 | 11 | 12.5 (≈ 22.7 µM) | > 50 | inhibition zone (IZ) [21]: inactive |
| CC(=O)Nc1ccc(F)cc1Sc1ncccc1[N+](=O)[O-] | 14 | 11 | 13 | 10 | 12 | > 50 | 14 | 6.25 (≈ 20.3 µM) | > 50 | 12 | 25 (≈ 81.4 µM) | 25 (≈ 81.4 µM) | 16 | 12.5 (≈ 40.7 µM) | 6.25 (≈ 20.3 µM) | 6.25 (≈ 20.3 µM) | 12 | 14 | 6.25 (≈ 20.3 µM) | 6.25 (≈ 20.3 µM) | zone of inhibition at 100 µg/mL [21]: 18 mm |
| CC(=O)Nc1ccc(Cl)cc1Sc1ncccc1[N+](=O)[O-] | 14 | 13 | 12 | 12 | 12 | 25 (≈ 77.2 µM) | 14 | 6.25 (≈ 19.3 µM) | 6.25 (≈ 19.3 µM) | 13 | 25 (≈ 77.2 µM) | 6.25 (≈ 19.3 µM) | 12 | 25 (≈ 77.2 µM) | 12.5 (≈ 38.6 µM) | 6.25 (≈ 19.3 µM) | 12 | 12 | 12.5 (≈ 38.6 µM) | 6.25 (≈ 19.3 µM) | zone of inhibition at 100 µg/mL [21]: 14 mm |
| Brc1ccc2c(c1)Sc1cccnc1N2CCCCCCN1c2ccc(Br)cc2Sc2cccnc21 | 11 | 12 | 12 | 12 | 11 | 12.5 (≈ 19.5 µM) | 13 | 6.25 (≈ 9.76 µM) | 25 (≈ 39 µM) | 14 | 12.5 (≈ 19.5 µM) | 6.25 (≈ 9.76 µM) | 11 | 25 (≈ 39 µM) | 6.25 (≈ 9.76 µM) | 25 (≈ 39 µM) | 13 | 12 | 25 (≈ 39 µM) | > 50 | zone of inhibition at 100 µg/mL [21]: 11 mm |
| CC(=O)Nc1ccc(Br)cc1Sc1ncccc1[N+](=O)[O-] | 13 | 13 | 12 | 12 | 11 | 12.5 (≈ 33.9 µM) | 14 | 6.25 (≈ 17 µM) | 6.25 (≈ 17 µM) | 13 | 25 (≈ 67.9 µM) | 6.25 (≈ 17 µM) | 14 | 25 (≈ 67.9 µM) | > 50 | 6.25 (≈ 17 µM) | 12 | 11 | 6.25 (≈ 17 µM) | 6.25 (≈ 17 µM) | zone of inhibition at 100 µg/mL [21]: 16 mm |
| C(=C\CN1c2ccccc2Sc2cccnc21)/CN1c2ccccc2Sc2cccnc21 | 12 | 11 | 12 | 12 | 11 | 12.5 (≈ 27.6 µM) | 12 | 12.5 (≈ 27.6 µM) | 50 (≈ 110 µM) | 10 | > 50 | > 50 | 13 | 12.5 (≈ 27.6 µM) | 50 (≈ 110 µM) | 12.5 (≈ 27.6 µM) | 10 | 11 | 6.25 (≈ 13.8 µM) | 12.5 (≈ 27.6 µM) | zone of inhibition at 100 µg/mL [21]: 12 mm |
| Fc1ccc2c(c1)Sc1cccnc1N2CCCCCCN1c2ccc(F)cc2Sc2cccnc21 | 13 | 11 | 12 | 12 | 12 | 12.5 (≈ 24.1 µM) | 13 | 6.25 (≈ 12.1 µM) | 50 (≈ 96.4 µM) | 12 | 25 (≈ 48.2 µM) | 12.5 (≈ 24.1 µM) | 11 | 25 (≈ 48.2 µM) | 12.5 (≈ 24.1 µM) | 6.25 (≈ 12.1 µM) | 12 | 12 | 25 (≈ 48.2 µM) | 50 (≈ 96.4 µM) | zone of inhibition at 100 µg/mL [21]: 10 mm |
